Data taken from patent US7365098B2, “N'-cyano-N-methyl-imidamide derivatives” (Bayer CropScience AG, priority 2002, dated 2008).

Columns and labels:
Meloidogyne incognita = assay: Meloidogyne test (gall formation on lettuce roots); type: in vivo; details: for nematizidal activity (formation of galls): Meloidogyne incognita egg/larvae, lettuce in sand, result in words
Procedure: • Solvent: 7 parts by weight of dimethylformamide • Emulsifier: 2 parts by weight of alkylaryl polyglycol ether To produce a suitable preparation of active compound, 1 part by weight of active compound is mixed with the stated amount of solvent and emulsifier, and the concentrate is diluted with water to the desired concentration. Containers are filled with sand, solution of active compound, Meloidogyne incognita egg/larvae suspension and lettuce seeds. The lettuce seeds germinate and the plants develop. On the roots, galls are formed. After the desired period of time, the nematizidal activity is the determined in percent by the formation of galls. 100% means that no galls were found; 0% means that the number of galls on the treated plants corresponds to that of the untreated control. […] The efficacy of the compounds is stated as kill rate in %.

[1] = logP determination by HPLC on reversed-phase column (EEC-Directive 79/831 Annex V.A8); type: physicochemical; details: reversed-phase C 18, 43° C., acidic range (0.1% aqueous phosphoric acid/acetonitrile gradient); for chromatographic logP: reversed-phase HPLC column (C 18)
Procedure: The logP values given in table 1 were determined in accordance with EEC-Directive 79/831 Annex V.A8 by HPLC (High Performance Liquid Chromatography) on a reversed-phase column (C 18). Temperature: 43° C. Mobile phases for the determination in the acidic range: 0.1% aqueous phosphoric acid, acetonitrile; linear gradient from 10% acetonitrile to 90% acetonitrile. Calibration was carried out using unbranched alkan-2-ones (having 3 to 16 carbon atoms) whose logP values are known (determination of the lopP values by the retention times using linear interpolation between two successive alkanones).

Spodoptera frugiperda = Spodoptera frugiperda test (dipped cabbage leaves); type: in vivo; details: Spodoptera frugiperda caterpillars on cabbage leaves; result in words
Procedure: [table] To produce a suitable preparation of active compound, 1 part by weight of active compound is mixed with the stated amount of solvent and emulsifier, and the concentrate is diluted with water to the desired concentration. Cabbage leaves (Brassica oleracea) are treated by being dipped into the preparation of active compound of the desired concentration and are populated with caterpillars of the Heerwurms (Spodoptera frugiperda) while the leaves are still moist. After the desired period of time, the kill in % is determined. 100% means that all caterpillars have been killed. 0% means that none of the caterpillars have been killed.

Phaedon cochleariae = assay: Phaedon larvae test (dipped cabbage leaves); type: in vivo; details: Phaedon cochleariae larvae on cabbage leaves; result in words
Procedure: • Solvent: 7 parts by weight of dimethylformamide • Emulsifier: 2 parts by weight of alkylaryl polyglycol ether To produce a suitable preparation of active compound, 1 part by weight of active compound is mixed with the stated amounts of solvent and emulsifier, and the concentrate is diluted with emulsifier-containing water to the desired concentration. Cabbage leaves (Brassica oleracea) are treated by being dipped into the preparation of active compound of the desired concentration and are populated with larvae of the mustard beetle (Phaedon cochleariae) while the leaves are still moist. After the desired period of time, the kill in % is determined. 100% means that all beetle larvae have been killed. 0% means that none of the beetle larvae have been killed.

With `CC/C(=N\C#N)N(C)C(C)c1cc(Cl)c(Cl)cc1Cl` (stereo not drawn) [Example 20] the “nematizidal activity (formation of galls)” value (shortened to “nematizidal activity”) (Meloidogyne incognita) was “highly effective” and the chromatographic logP [1] was 3.18.
With `CC/C(=N\C#N)NC(C)c1ccc(Cl)c(F)c1` (stereo not drawn) [reference compound] the “efficacy stated as kill rate in %” value (Meloidogyne incognita; 4 ppm active compound) was 4 ppm: 0%.
With `CC/C(=N\C#N)N(C)[C@@H](C)c1cc(F)c(Cl)cc1F` [Example 12] the “nematizidal activity” value (Meloidogyne incognita) was “highly effective” and the chromatographic logP [1] was 2.59.
With `C/C(=N\C#N)N(C)C(C)c1cccc(Cl)c1Cl` (stereo not drawn) [Example 28] the “nematizidal activity” value (Meloidogyne incognita) was “highly effective” and the chromatographic logP [1] was 2.37.
In the case of `CC/C(=N\C#N)N(C)C(C)c1ccc(Br)c(Cl)c1` (stereo not drawn) [Example 25], the “nematizidal activity” value (Meloidogyne incognita) is reported as “highly effective” and the chromatographic logP [1] is reported as 2.94.
In the case of `CC/C(=N\C#N)N(C)C(C)c1ccc(Cl)c(Cl)c1Cl` (stereo not drawn) [Example 18], the “nematizidal activity” value (Meloidogyne incognita) is reported as “highly effective”.
`CC/C(=N\C#N)N(C)C(C)c1ccc(Cl)cc1Cl` (stereo not drawn) [Example 2, N′-Cyano-N-[1-(2,4-dichlorophenyl)ethyl]-N-methylpropaneimidamide] gave a chromatographic logP [1] of 2.8 and a melting point of 148 °C.
For `CC/C(=N\C#N)N(C)C(C)c1cc(F)c(Cl)cc1Cl` (stereo not drawn) [Example 9], the kill of caterpillars (Spodoptera frugiperda) was “highly effective” and the “nematizidal activity” value (Meloidogyne incognita) was “highly effective”.
With `C/C(=N\C#N)NC(C)c1ccc(Cl)cc1Cl` (stereo not drawn) [reference compound] the “efficacy stated as kill rate in %” value (Meloidogyne incognita; 5 ppm active compound) was 5 ppm: 0%.
In the case of `CC/C(=N\C#N)N(C)C(C)c1ccc(Cl)c(F)c1` (stereo not drawn) [drawing 46], the “efficacy stated as kill rate in %” value (Meloidogyne incognita; 4 ppm active compound) is reported as 4 ppm: 100%.
For `C/C(=N\C#N)N(C)C(C)c1ccc(Cl)c(F)c1` (stereo not drawn) [Example 7], the “nematizidal activity” value (Meloidogyne incognita) was “highly effective” and the chromatographic logP [1] was 2.4.
For `CC/C(=N\C#N)N(C)[C@H](C)c1cc(F)c(Cl)cc1F` [Example 13], the “nematizidal activity” value (Meloidogyne incognita) was “highly effective” and the chromatographic logP [1] was 2.59.
Work on `CC/C(=N\C#N)N(C)C(C)c1cc(F)c(F)cc1F` (stereo not drawn) [Example 16] yielded a chromatographic logP [1] of 2.31.
In the case of `CC/C(=N\C#N)N(C)C(C)c1c(F)cccc1Cl` (stereo not drawn) [Example 23], the “nematizidal activity” value (Meloidogyne incognita) is reported as “highly effective” and the logP [1] is reported as “logP: 2.40”.
With `CC/C(=N\C#N)N(C)C(C)c1ccc(F)c(F)c1` (stereo not drawn) [Example 27] the “nematizidal activity” value (Meloidogyne incognita) was “highly effective” and the chromatographic logP [1] was 2.32.
For `C/C(=N\C#N)N(C)C(C)c1ccc(Cl)cc1Cl` (stereo not drawn) [drawing 48], the “efficacy stated as kill rate in %” value (Meloidogyne incognita; 4 ppm active compound) was 4 ppm: 100%.
In the case of `CC/C(=N\C#N)N(C)C(C)c1ccc(Cl)c(Br)c1` (stereo not drawn) [Example 21], the chromatographic logP [1] is reported as 2.94.
For `CC/C(=N\C#N)N(C)[C@H](C)c1ccc(Cl)cc1F` [Example 11], the “nematizidal activity” value (Meloidogyne incognita) was “highly effective” and the chromatographic logP [1] was 2.55.
For `CC/C(=N\C#N)N(C)C(C)c1cccc(Cl)c1Cl` (stereo not drawn) [Example 29], the “nematizidal activity” value (Meloidogyne incognita) was “highly effective” and the chromatographic logP [1] was 2.59.
In the case of `CC/C(=N\C#N)N(C)C(C)c1ccc(Cl)cc1F` (stereo not drawn) [Example 4], the “nematizidal activity” value (Meloidogyne incognita) is reported as “highly effective”.
In the case of `CC/C(=N\C#N)NC(C)c1ccc(Cl)cc1Cl` (stereo not drawn) [drawing 45, reference compound], the “efficacy stated as kill rate in %” value (Meloidogyne incognita; 20 ppm active compound) is reported as 20 ppm: 0%.
With `CC/C(=N\C#N)N(C)C(C)c1ccc(Cl)c(F)c1` (stereo not drawn) [Example 8] the “nematizidal activity” value (Meloidogyne incognita) was “highly effective” and the chromatographic logP [1] was 2.61.
Compound `CC/C(=N\C#N)NC(C)c1ccc(Cl)cc1Cl` (stereo not drawn) [Example 1, N′-Cyano-N-[1-(2,4-dichlorophenyl)ethyl]propaneimidamide] has a chromatographic logP [1] of 2.56.
With `C/C(=N\C#N)N(C)C(C)c1ccc(Cl)cc1F` (stereo not drawn) [Example 3] the “nematizidal activity” value (Meloidogyne incognita) was “highly effective”.
For `C/C(=N\C#N)N(C)C(C)c1cc(F)c(Cl)cc1F` (stereo not drawn) [Example 6], the “nematizidal activity” value (Meloidogyne incognita) was “highly effective”.
For `C/C(=N\C#N)N(C)C(C)c1ccc(F)c(F)c1` (stereo not drawn) [Example 26], the “nematizidal activity” value (Meloidogyne incognita) was “highly effective” and the chromatographic logP [1] was 2.09.
For `CC/C(=N\C#N)N(C)C(C)c1ccc(Cl)c(Cl)c1` (stereo not drawn) [Example 15], the “nematizidal activity” value (Meloidogyne incognita) was “highly effective” and the chromatographic logP [1] was 2.9.
In the case of `C/C(=N\C#N)N(C)C(C)c1cc(Cl)ccc1Cl` (stereo not drawn) [Example 24], the “nematizidal activity” value (Meloidogyne incognita) is reported as “highly effective” and the chromatographic logP [1] is reported as 2.46.
In the case of `CC/C(=N\C#N)N(C)[C@@H](C)c1ccc(Cl)cc1F` [Example 10], the “nematizidal activity” value (Meloidogyne incognita) is reported as “highly effective” and the chromatographic logP [1] is reported as 2.55.
With `CC/C(=N\C#N)N(C)C(C)c1cc(F)c(Br)cc1F` (stereo not drawn) [Example 30] the chromatographic logP [1] was 2.66.
For `CC/C(=N\C#N)N(C)C(C)c1c(F)cccc1Cl` (stereo not drawn) [Example 22], the “nematizidal activity” value (Meloidogyne incognita) was “highly effective” and the chromatographic logP [1] was 2.19.
In the case of `C/C(=N\C#N)N(C)C(C)c1ccc(Cl)cc1Cl` (stereo not drawn) [Example 17], the “nematizidal activity” value (Meloidogyne incognita) is reported as “highly effective” and the chromatographic logP [1] is reported as 2.58.
With `C/C(=N\C#N)N(C)C(C)c1ccc(Cl)c(Cl)c1` (stereo not drawn) [Example 14] the “nematizidal activity” value (Meloidogyne incognita) was “highly effective” and the chromatographic logP [1] was 2.68.
With `CC/C(=N\C#N)N(C)C(C)c1cc(F)c(Cl)cc1F` (stereo not drawn) [Example 5] the kill of caterpillars (Spodoptera frugiperda) was “highly effective” and the “nematizidal activity” value (Meloidogyne incognita) was “highly effective”.
In the case of `C/C(=N\C#N)N(C)C(C)c1cc(Cl)c(Cl)cc1Cl` (stereo not drawn) [Example 19], the “kill of beetle larvae” value (Phaedon cochleariae) is reported as “highly effective”, the kill of caterpillars (Spodoptera frugiperda) is reported as “highly effective” and the “nematizidal activity” value (Meloidogyne incognita) is reported as “highly effective”. It also gave a chromatographic logP [1] of 2.9.
For `CC/C(=N\C#N)N(C)C(C)c1ccc(Cl)cc1Cl` (stereo not drawn) [drawing 44], the “efficacy stated as kill rate in %” value (Meloidogyne incognita; 20 ppm active compound) was 20 ppm: 100%.
